Experimental data: the supplement of paper PMC10307832

Legend:
Assay in all cases: relative viability (nuclei count vs DMSO), 5 days (fraction); higher = more cells survive
AZD6482 + Trametinib = compound: Cc1cc([C@@H](C)Nc2ccccc2C(=O)O)c2nc(N3CCOCC3)cc(=O)n2c1 [AZD6482] + CC(=O)Nc1cccc(-n2c(=O)n(C3CC3)c(=O)c3c(Nc4ccc(I)cc4F)n(C)c(=O)c(C)c32)c1 [Trametinib] (partner 0.02 µM)
Summary of the method: (§1)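 Relative viability was taken as the ratio of nuclei in treated wells to nuclei in vehicle wells. Lung cancer cell lines in 1536-well plates received compounds by pin tool one day after seeding, either one drug alone or a fixed anchor-drug dose plus five library-drug doses (not always all listed) in √10 steps. Nuclei were counted on 4× images after 5 days of treatment, and values are medians of duplicate plates.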

[1] = compound: COc1cc2nc(N3CCCN(C)CC3)nc(NC3CCN(Cc4ccccc4)CC3)c2cc1OC + Cc1nc(Nc2ncc(C(=O)Nc3c(C)cccc3Cl)s2)cc(N2CCN(CCO)CC2)n1 [Dasatinib] (partner 0.075 µM)
Summary of the method: as §1

AZD6482 + Pictilisib = compound: Cc1cc([C@@H](C)Nc2ccccc2C(=O)O)c2nc(N3CCOCC3)cc(=O)n2c1 [AZD6482] + CS(=O)(=O)N1CCN(Cc2cc3nc(-c4cccc5[nH]ncc45)nc(N4CCOCC4)c3s2)CC1 [Pictilisib] (partner 1 µM)
Summary of the method: as §1

AZD6482 + Foretinib = compound: Cc1cc([C@@H](C)Nc2ccccc2C(=O)O)c2nc(N3CCOCC3)cc(=O)n2c1 [AZD6482] + COc1cc2c(Oc3ccc(NC(=O)C4(C(=O)Nc5ccc(F)cc5)CC4)cc3F)ccnc2cc1OCCCN1CCOCC1 [Foretinib] (partner 0.25 µM)
Summary of the method: as §1

Cell Line | relative viability (AZD6482 + Trametinib; first compound 0.08 µM) | relative viability (AZD6482 + Trametinib; first compound 0.253 µM) | relative viability (AZD6482 + Trametinib; first compound 0.8 µM) | relative viability (AZD6482 + Trametinib; first compound 2.53 µM) | relative viability (AZD6482 + Trametinib; first compound 8 µM) | relative viability ([1]; first compound 0.2 µM) | relative viability ([1]; first compound 0.6325 µM) | relative viability ([1]; first compound 2 µM) | relative viability ([1]; first compound 6.325 µM) | relative viability (AZD6482 + Pictilisib; first compound 0.08 µM) | relative viability (AZD6482 + Pictilisib; first compound 0.253 µM) | relative viability (AZD6482 + Pictilisib; first compound 0.8 µM) | relative viability (AZD6482 + Pictilisib; first compound 2.53 µM) | relative viability (AZD6482 + Pictilisib; first compound 8 µM) | relative viability (AZD6482 + Foretinib; first compound 0.08 µM) | relative viability (AZD6482 + Foretinib; first compound 0.253 µM) | relative viability (AZD6482 + Foretinib; first compound 0.8 µM) | relative viability (AZD6482 + Foretinib; first compound 2.53 µM) | relative viability (AZD6482 + Foretinib; first compound 8 µM)
HOP-62 | 0.247 | 0.342 | 0.242 | 0.262 | 0.232 | 0.748 | 0.62 | 0.711 | 0.65 | 0.76 | 0.741 | 0.8 | 0.556 | 0.667 | 1.12 | 1.15 | 1.23 | 0.94 | 1.02
CAL-12T | 0.308 | 0.276 | 0.234 | 0.185 | 0.302 | 0.37 | 0.325 | 0.54 | 0.294 | 0.395 |  | 0.571 | 0.291 | 0.432 | 1.11 | 1.22 | 1.2 | 0.792 | 1
NCI-H520 | 0.567 | 0.463 | 0.433 | 0.201 | 0.26 | 0.217 | 0.228 | 0.252 | 0.187 | 0.254 | 0.197 | 0.27 |  | 0.316 | 0.423 | 0.661 | 0.493 | 0.203 | 0.304
NCI-H1755 | 0.7 | 0.75 | 0.693 | 0.542 | 0.508 | 0.436 | 0.395 | 0.416 | 0.423 | 0.274 | 0.317 | 0.372 | 0.213 | 0.43 | 0.807 | 0.834 | 0.851 | 0.669 | 0.603
NCI-H2023 | 0.455 | 0.52 | 0.547 | 0.28 | 0.389 | 0.57 | 0.558 | 0.56 | 0.237 | 0.194 | 0.227 | 0.233 | 0.132 | 0.24 | 0.83 | 0.757 | 1.02 | 0.477 | 0.518
NCI-H2009 | 0.181 | 0.163 | 0.21 | 0.139 | 0.185 | 0.308 | 0.324 | 0.493 | 0.296 | 0.71 | 0.765 | 0.871 | 0.516 | 0.743 | 1.12 | 1.24 | 1.24 | 0.83 | 0.747
